# Measurements: US4683230A, “BMY-28121, a new antitumor antibiotic” (Bristol-Myers Company, priority 1985, dated 1987)
# Assays:
# [1] = test system: Clostridium perfringens A22787; assay: microbe, parasite or virus in culture; assay type: cell-based
# P388 leukemia = details: mouse, in vivo
# [2] = Acute toxicity in mice, single intraperitoneal administration; set-up: species or system mice (male ddY strain); details: mouse, in vivo, ip, male ddY mice
# anaerobic bacteria = assay type: cell-based
# B16 melanoma = assay: Antitumor activity in mice, melanotic melanoma B16; details: ip, once daily for 9 days, circled = significant antitumor effect
structure (smiles),measurement,setting,value
CC1(C)S[C@@H]2[C@H](NC(=O)[C@H](N)c3ccccc3)C(=O)N2[C@H]1C(=O)O [Ampicillin],MIC,[1],0.1 µg/mL
COc1cccc2c1N[C@H](O)[C@@H]1CC(/C=C/C(=O)N(C)C)=CN1C2=O [BMY-28121A],"antitumor activity against experimental tumors in mice, eg. P388 leukemia",P388 leukemia,marked antitumor activity
"COc1cccc2c1N[C@H](OC)[C@@H]1CC(/C=C/C(=O)N(C)C)=CN1C2=O [BMY-28121B, 1,10,11,11a-tetrahydro-9,11-dimethoxy-5H-pyrrolo[2,1-c][1,4]benzodiazepine-5-one-2-N,N-dimethylacrylamide]",solubility in ethyl acetate and ethyl ether,,slightly soluble
same,"solubility in methanol, ethanol, chloroform, pyridine, and dimethylformamide",,readily soluble
same,solubility in n-hexane,,practically insoluble
same,solubility in water,,practically insoluble
same,LD50,[2],0.81 mg/kg
same,inhibition of anaerobic bacteria,anaerobic bacteria,inhibited all
same,"antitumor activity against experimental tumors in mice, eg. P388 leukemia",P388 leukemia,marked antitumor activity
CO[C@@]12[C@H](COC(N)=O)C3=C(C(=O)C(C)=C(N)C3=O)N1C[C@@H]1N[C@@H]12 [Mitomycin C],T/C % of MST,B16 melanoma; 0.13 mg/kg/day,124%
same,T/C % of MST,B16 melanoma; 0.25 mg/kg/day,136%
